Literature values in PubChem BioAssay AID1259409 (Chemical Carcinogenesis Research Information System (CCRIS), 2018).

System: rodent chemically induced tumor inhibition, incidence and multiplicity
Experiment: CCRIS tumor inhibitor studies

Cc1cc(C(C)(C)C)c(O)c(C(C)(C)C)c1
tumour outcome (control, treated, inhibition, significance) (Carcinogen: 1,2-DIMETHYLHYDRAZINE DIHYDROCHLORIDE, 306-37-6, Dose [Inhibitor]: 6600 PPM IN DIET FOR 23 WK (STUDY DURATION: 23 WK), Route [Inhibitor]: ORAL, Species: RAT, Strain/Sex: SPRAGUE-DAWLEY MALE, Target Tissue: Type of Lesion: CECUM: TUMOR, Dose [Carcinogen]: 30 MG/KG IN SALINE 1/WK FOR THE FIRST 9 WK OF STUDY (10 DOSES), SIMULTANEOUSLY WITH INHIBITOR, Promoter: NONE USED): 1/10 (10%), 4/9 (44%), -340%, not calculated | tumour outcome (control, treated, inhibition, significance) (Carcinogen: 1,2-DIMETHYLHYDRAZINE DIHYDROCHLORIDE, 306-37-6, Dose [Inhibitor]: 6600 PPM IN DIET FOR 23 WK (STUDY DURATION: 23 WK), Route [Inhibitor]: ORAL, Species: RAT, Strain/Sex: SPRAGUE-DAWLEY MALE, Target Tissue: Type of Lesion: COLON: TUMOR, Dose [Carcinogen]: 30 MG/KG IN SALINE 1/WK FOR THE FIRST 9 WK OF STUDY (10 DOSES), SIMULTANEOUSLY WITH INHIBITOR, Promoter: NONE USED): 10/10 (100%), 9/9 (100%), 0%, not calculated | tumour outcome (control, treated, inhibition, significance) (Carcinogen: 1,2-DIMETHYLHYDRAZINE DIHYDROCHLORIDE, 306-37-6, Dose [Inhibitor]: 6600 PPM IN DIET FOR 23 WK (STUDY DURATION: 23 WK), Route [Inhibitor]: ORAL, Species: RAT, Strain/Sex: SPRAGUE-DAWLEY MALE, Target Tissue: Type of Lesion: DUODENUM: TUMOR, Dose [Carcinogen]: 30 MG/KG IN SALINE 1/WK FOR THE FIRST 9 WK OF STUDY (10 DOSES), SIMULTANEOUSLY WITH INHIBITOR, Promoter: NONE USED): 8/10 (80%), 5/9 (56%), 30%, not calculated | tumour outcome (control, treated, inhibition, significance) (Carcinogen: 1,2-DIMETHYLHYDRAZINE, 540-73-8, Dose [Inhibitor]: 0, 0.5% IN DIET BEGINNING 1 WK POST LAST CARCINOGEN DOSE AND CONTINUING FOR 36 WK (STUDY DURATION: 40 WK), Route [Inhibitor]: ORAL, Species: RAT, Strain/Sex: F344/MALE, Target Tissue: Type of Lesion: COLON: ADENOMA, Dose [Carcinogen]: 20 MG/KG 1/WK FOR 4 WK, Promoter: NONE USED): 5/18 (28%), 4/19 (21%), 25%, not calculated | tumour outcome (control, treated, inhibition, significance) (Carcinogen: 1,2-DIMETHYLHYDRAZINE, 540-73-8, Dose [Inhibitor]: 0, 0.5% IN DIET BEGINNING 1 WK POST LAST CARCINOGEN DOSE AND CONTINUING FOR 36 WK (STUDY DURATION: 40 WK), Route [Inhibitor]: ORAL, Species: RAT, Strain/Sex: F344/MALE, Target Tissue: Type of Lesion: COLON: CARCINOMA, Dose [Carcinogen]: 20 MG/KG 1/WK FOR 4 WK, Promoter: NONE USED): 7/18 (39%), 9/19 (48%), -23%, not calculated | tumour outcome (control, treated, inhibition, significance) (Carcinogen: 1,2-DIMETHYLHYDRAZINE, 540-73-8, Dose [Inhibitor]: 0, 250 MG/KG BW IN CORN OIL 1/D FOR 2 WK PRIOR TO FIRST CARCINOGEN DOSE THEN 3/WK FOR DURATION OF STUDY (STUDY DURATION:, Route [Inhibitor]: GAVAGE, Species: RAT, Strain/Sex: BD6/MALE, Target Tissue: Type of Lesion: INTESTINE: TUMOR, Dose [Carcinogen]: 20 MG/KG BW 1/WK FOR 20 WK, Promoter: NONE USED): 100%, 100%, 0%, not significant | tumour outcome (control, treated, inhibition, significance) (Carcinogen: 1,2-DIMETHYLHYDRAZINE, 540-73-8, Dose [Inhibitor]: 0.5% IN DIET STARTING 2 WK PRIOR TO CARCINOGEN TREATMENT AND CONTINUING FOR DURATION OF STUDY (STUDY DURATION: 28 WK), Route [Inhibitor]: ORAL, Species: RAT, Strain/Sex: SPRAGUE-DAWLEY/MALE, Target Tissue: Type of Lesion: COLON: ADENOCARCINOMA, Dose [Carcinogen]: 20 MG/KG BW IN BACTERIOSTATIC SALINE 1/WK FOR 20 WK, Promoter: NONE USED): 9/14 (64%), 3/7 (43%), 33%, not calculated | tumour outcome (control, treated, inhibition, significance) (Carcinogen: 1,2-DIMETHYLHYDRAZINE, 540-73-8, Dose [Inhibitor]: 0.75% IN DIET FOR LIFE BEGINNING AT 8 WK OF AGE (STUDY DURATION: 10 MO POST FIRST CARCINOGEN TREATMENT), Route [Inhibitor]: ORAL, Species: MOUSE, Strain/Sex: BALB/FEMALE, Target Tissue: Type of Lesion: LARGE INTESTINE: TUMOR, Dose [Carcinogen]: 20 MG/KG BW IN SALINE FOR 10 WK BEGINNING AT 11 WK OF AGE, Promoter: NONE USED): 9/18 (50%), 15/25 (60%), -20%, not significant | tumour outcome (control, treated, inhibition, significance) (Carcinogen: 1,2-DIMETHYLHYDRAZINE, 540-73-8, Dose [Inhibitor]: 0.75% IN DIET FOR LIFE BEGINNING AT 8 WK OF AGE (STUDY DURATION: 10 MO POST FIRST CARCINOGEN TREATMENT), Route [Inhibitor]: ORAL, Species: MOUSE, Strain/Sex: BALB/MALE, Target Tissue: Type of Lesion: LARGE INTESTINE: TUMOR, Dose [Carcinogen]: 20 MG/KG BODY WEIGHT IN SALINE FOR 10 WK BEGINNING AT 11 WK OF AGE, Promoter: NONE USED): 15/20 (75%), 12/35 (34%), 55%, p=0.0036 | tumour outcome (control, treated, inhibition, significance) (Carcinogen: 2-ACETYLAMINOFLUORENE, 53-96-3, Dose [Inhibitor]: 0, 100 PPM IN DIET CONCURRENTLY WITH CARCINOGEN FOR STUDY DURATION (STUDY DURATION: 76 WK), Route [Inhibitor]: ORAL, Species: RAT, Strain/Sex: F344/MALE, Target Tissue: Type of Lesion: LIVER: HEPATOCELLULAR TUMOR, Dose [Carcinogen]: 50 PPM IN DIET FOR 76 WK): 20/20 (100%), 18/18 (100%), 0%, not calculated | tumour outcome (control, treated, inhibition, significance) (Carcinogen: 2-ACETYLAMINOFLUORENE, 53-96-3, Dose [Inhibitor]: 0, 100 PPM IN SEMISYNTHETIC DIET CONCURRENTLY WITH CARCINOGEN FOR STUDY DURATION (STUDY DURATION: 76 WK), Route [Inhibitor]: ORAL, Species: RAT, Strain/Sex: F344/MALE, Target Tissue: Type of Lesion: BLADDER: CARCINOMA, Dose [Carcinogen]: 50 PPM IN DIET FOR 76 WK): 1/17 (6%), 0/16 (0%), 100%, not calculated | tumour outcome (control, treated, inhibition, significance) (Carcinogen: 2-ACETYLAMINOFLUORENE, 53-96-3, Dose [Inhibitor]: 0, 100 PPM IN SEMISYNTHETIC DIET CONCURRENTLY WITH CARCINOGEN FOR STUDY DURATION (STUDY DURATION: 76 WK), Route [Inhibitor]: ORAL, Species: RAT, Strain/Sex: F344/MALE, Target Tissue: Type of Lesion: LIVER: HEPATOCELLULAR TUMORS, Dose [Carcinogen]: 50 PPM IN DIET FOR 76 WK): 17/17 (100%), 16/16 (100%), 0%, not significant | outcome (Carcinogen: 2-ACETYLAMINOFLUORENE, 53-96-3, Dose [Inhibitor]: 0, 300 PPM IN DIET CONCURRENTLY WITH CARCINOGEN FOR STUDY DURATION (STUDY DURATION: 76 WK), Route [Inhibitor]: ORAL, Species: RAT, Strain/Sex: F344/MALE, Target Tissue: Type of Lesion: LIVER: ADENOMA, Dose [Carcinogen]: 50 PPM IN DIET FOR 76 WK): 19.2, 13.4, 30%, p<0.05 | tumour outcome (control, treated, inhibition, significance) (Carcinogen: 2-ACETYLAMINOFLUORENE, 53-96-3, Dose [Inhibitor]: 0, 300 PPM IN DIET CONCURRENTLY WITH CARCINOGEN FOR STUDY DURATION (STUDY DURATION: 76 WK), Route [Inhibitor]: ORAL, Species: RAT, Strain/Sex: F344/MALE, Target Tissue: Type of Lesion: LIVER: HEPATOCELLULAR TUMOR, Dose [Carcinogen]: 50 PPM IN DIET FOR 76 WK): 20/20 (100%), 17/17 (100%), 0%, not calculated | tumour outcome (control, treated, inhibition, significance) (Carcinogen: 2-ACETYLAMINOFLUORENE, 53-96-3, Dose [Inhibitor]: 0, 1000 PPM IN DIET CONCURRENTLY WITH CARCINOGEN FOR STUDY DURATION (STUDY DURATION: 76 WK), Route [Inhibitor]: ORAL, Species: RAT, Strain/Sex: F344/MALE, Target Tissue: Type of Lesion: LIVER: HEPATOCELLULAR TUMOR, Dose [Carcinogen]: 50 PPM IN DIET FOR 76 WK): 20/20 (100%), 19/19 (100%), 0%, not calculated
